Measurements reported in publication PMC11532494 (Nature Communications, 2024).
Where “and” joins values, the source holds several entries; their conditions need not be identical. Equal values may be shown once. Read-outs that look alike come from different tables or passages of the source. No end group written: not given here. *: point of attachment. AMC = Cc1cc(=O)oc2cc(N*)ccc12

Legend:
[1] = molecular target: PA1409 (Pseudomonas aeruginosa, UniProt Q9I3T5); assay: Acetyl-polyamine deacetylase assay (positive control); format: biochemical; details: PA1409 (positive control enzyme); single samples (replicates)
[2] = test system: VsHdaH (1b); format: biochemical, Vibrio sp.; details: VsHdaH (1b) 3µM; single samples (replicates)
[3] = test system: RsPrpH (1b); assay: Acetyl-polyamine deacetylase assay; format: biochemical, Rhizorhabdus sp.; details: RsPrpH 3µM; single samples (replicates)
[4] = molecular target: T1, RwDmhA (1b) (Rhizorhabdus wittichii, UniProt A0A067XIQ6); format: biochemical; details: RwDmhA (1b) 3µM; single samples (replicates)
Target sequence in this assay (A0A067XIQ6 1-369): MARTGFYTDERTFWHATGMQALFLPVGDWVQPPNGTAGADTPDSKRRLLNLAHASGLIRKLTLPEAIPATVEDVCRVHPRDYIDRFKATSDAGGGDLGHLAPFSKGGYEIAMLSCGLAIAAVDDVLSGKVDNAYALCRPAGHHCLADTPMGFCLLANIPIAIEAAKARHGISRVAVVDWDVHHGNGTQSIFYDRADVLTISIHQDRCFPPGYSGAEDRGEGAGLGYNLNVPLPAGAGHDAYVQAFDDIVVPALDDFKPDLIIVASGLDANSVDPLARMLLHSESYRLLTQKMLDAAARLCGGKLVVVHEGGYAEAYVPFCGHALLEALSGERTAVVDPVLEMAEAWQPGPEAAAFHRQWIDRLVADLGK

[5] = molecular target: T2, KpHdaH (1b) (Klebsiella pneumoniae, UniProt A0A377Z5F6); format: biochemical; details: KpKDAC (1b); single samples (replicates)
Target sequence in this assay (A0A377Z5F6 1-371): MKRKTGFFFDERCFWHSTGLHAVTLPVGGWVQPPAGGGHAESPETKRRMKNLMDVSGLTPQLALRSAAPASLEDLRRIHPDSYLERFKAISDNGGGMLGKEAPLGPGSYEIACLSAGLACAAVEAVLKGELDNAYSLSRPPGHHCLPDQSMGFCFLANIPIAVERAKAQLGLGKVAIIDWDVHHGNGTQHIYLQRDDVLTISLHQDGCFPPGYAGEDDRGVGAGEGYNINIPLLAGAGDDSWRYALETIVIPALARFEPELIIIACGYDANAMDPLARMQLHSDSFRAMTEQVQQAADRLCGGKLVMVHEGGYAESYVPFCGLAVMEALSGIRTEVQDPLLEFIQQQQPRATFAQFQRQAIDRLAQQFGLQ

[6] = molecular target: T3, BsAcuC (2c) (Bacillus subtilis, UniProt P39067); assay: Acetyl-polyamine deacetylase assay; format: biochemical; details: BsAcuC (2c) 3µM; single samples (replicates)
T3 construct: made in house; host or cells: E. coli BL21 (DE3)
T3 sequence (P39067 1-387): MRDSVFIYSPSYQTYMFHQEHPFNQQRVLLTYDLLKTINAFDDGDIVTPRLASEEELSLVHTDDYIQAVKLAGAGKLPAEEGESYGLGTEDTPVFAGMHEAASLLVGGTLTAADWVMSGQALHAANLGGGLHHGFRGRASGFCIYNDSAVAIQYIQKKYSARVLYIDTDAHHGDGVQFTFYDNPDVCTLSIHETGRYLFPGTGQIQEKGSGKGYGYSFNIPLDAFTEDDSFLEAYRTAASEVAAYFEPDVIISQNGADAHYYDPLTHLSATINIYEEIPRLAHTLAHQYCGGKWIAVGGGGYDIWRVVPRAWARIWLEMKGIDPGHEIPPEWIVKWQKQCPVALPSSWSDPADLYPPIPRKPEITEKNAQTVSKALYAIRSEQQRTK

[7] = test system: VcHdaH (5b); assay: Acetyl-polyamine deacetylase assay; format: biochemical, Vibrio cholerae; details: VcHdaH (5b) 6µM; single samples (replicates)
[8] = test system: VsHdaH (1b); format: biochemical, Vibrio sp.; details: VKDAC
[9] = test system: RsPrpH (1b); assay: Substrate screening assay (acyl-peptide-AMC); format: biochemical, Rhizorhabdus sp.; details: RsPrpH (1b); for [AMC]: Transform RFU in [AMC]
[10] = molecular target: T1, RwDmhA (1b); format: biochemical; details: RwDmhA (1b)
[11] = molecular target: T2, KpHdaH (1b); format: biochemical; details: KpHdaH (1b)
[12] = molecular target: T3, BsAcuC (2c); assay: Substrate screening assay (acyl-peptide-AMC); format: biochemical; details: BsAcuC (2c); for [AMC]: Transform RFU in [AMC]
Procedure: (§1) Experiments with SIRT2 and SIRT5 were supplemented with NAD^+ (500 µM). Thereafter, a solution of trypsin (25 µL, 5.0 mg/mL; final concentration of 2.5 mg/mL) was added, and the development of the assay was allowed to proceed for 90 min at room temperature before fluorescence analysis. […] To this end, a single category is given to all conversions >48% on the heatmap. […] For the H4-derived peptide LGKbio no positive control was available.

[13] = test system: VcHdaH (5b); format: biochemical, Vibrio cholerae; details: VcHdaH (5b); for [AMC]: Transform RFU in [AMC]
[14] = molecular target: PsApaH (4) (Pseudomonas sp. M30-35, UniProt A0A1Y0KY79); format: biochemical; details: PsApaH (4)
Procedure: as §1

[15] = molecular target: LcApaH (3) (Legionella cherrii, UniProt A0A0W0SGS1); format: biochemical
[16] = test system: Controls; assay: Substrate screening assay (acyl-peptide-AMC), control enzymes; format: biochemical; details: for [AMC]: Transform RFU in [AMC]
[17] = Transform RFU*2, Controls, Sample 1
[18] = Transform RFU*2, Controls, Sample 2

Chain of PA1409 (Q9I3T5 whole entry): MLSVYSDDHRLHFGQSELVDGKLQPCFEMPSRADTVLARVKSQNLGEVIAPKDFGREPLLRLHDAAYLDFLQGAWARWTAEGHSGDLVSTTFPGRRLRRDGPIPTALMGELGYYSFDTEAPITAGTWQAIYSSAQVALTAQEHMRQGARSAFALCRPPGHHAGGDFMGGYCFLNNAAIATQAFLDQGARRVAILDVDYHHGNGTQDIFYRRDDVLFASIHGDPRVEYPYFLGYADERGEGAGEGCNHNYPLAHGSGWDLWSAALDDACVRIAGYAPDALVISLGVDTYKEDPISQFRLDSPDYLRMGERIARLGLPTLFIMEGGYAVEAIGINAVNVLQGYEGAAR

CC(=O)NCCCNCCCCNCCCN [N1-acetyl-spermine]
acetate released, g/l [1]: 0.1471 g/L and 0.1516 g/L
acetate released, mM [1]: 2.449 mM and 2.524 mM
mM normalized to enzyme concentration [1]: 24.4938 mM and 25.2427 mM
acetate released, g/l [2]: -0.003525 g/L and 0.003264 g/L and 0.003525 g/L
acetate released, mM [2]: -0.0587 mM and 0.05435 mM and 0.0587 mM
mM normalized to enzyme concentration [2]: -0.01957 mM and 0.01812 mM and 0.01957 mM
acetate released, g/l [3]: -0.0006527 g/L and -0.0001305 g/L and -0.004569 g/L
acetate released, mM [3]: -0.01087 mM and -0.002174 mM and -0.07609 mM
mM normalized to enzyme concentration [3]: -0.003623 mM and -0.0007246 mM and -0.02536 mM
acetate released, g/l [4]: 0.0001305 g/L
acetate released, mM [4]: 0.002174 mM and -0.002174 mM
mM normalized to enzyme concentration [4]: -0.01812 mM and 0.0007246 mM and -0.0007246 mM
acetate released, g/l [5]: 0.02153 g/L and 0.02371 g/L and 0.03188 g/L
acetate released, mM [5]: 0.3585 mM and 0.3948 mM and 0.5309 mM
mM normalized to enzyme concentration [5]: 0.07169 mM and 0.07895 mM and 0.1062 mM
acetate released, g/l [6]: 0.002742 g/L and 0.0001305 g/L
acetate released, mM [6]: 0.04565 mM and 0.002174 mM
mM normalized to enzyme concentration [6]: 0.01522 mM and 0.0007246 mM
acetate released, g/l [7]: -0.0009138 g/L and -0.003003 g/L and -0.003264 g/L
acetate released, mM [7]: -0.01522 mM and -0.05 mM and -0.05435 mM
mM normalized to enzyme concentration [7]: -0.002536 mM and -0.008333 mM and -0.009058 mM

QPKKdec (QPKK-{AMC}; not fully specified (residue 4); printed as QPKKdec; also: decanoyl-lysine (which Lys not given here); UniProt P04637 317-320, looked up, fragment)
Relative Fluorescene Units (RFU) ([8]; Transform RFU*2, Sample 1): 126 RFU
Relative Fluorescene Units (RFU) ([8]; Transform RFU*2, Sample 2): 202 RFU
Relative Fluorescene Units (RFU) ([8]; Sample 1): 63 RFU
Relative Fluorescene Units (RFU) ([8]; Sample 2): 101 RFU
Relative Fluorescene Units (RFU) ([9]; Sample 1): 32 RFU
Relative Fluorescene Units (RFU) ([9]; Sample 2): 43 RFU
[AMC] ([9]; Sample 1): 31.25 nM
[AMC] ([9]; Sample 2): 41.99 nM
Relative Fluorescene Units (RFU) ([9]; Transform RFU*2, Sample 1): 64 RFU
Relative Fluorescene Units (RFU) ([9]; Transform RFU*2, Sample 2): 86 RFU
Relative Fluorescene Units (RFU) ([10]; Sample 1): 19 RFU
Relative Fluorescene Units (RFU) ([10]; Sample 2): 47 RFU
Relative Fluorescene Units (RFU) ([10]; Transform RFU*2, Sample 1): 38 RFU
Relative Fluorescene Units (RFU) ([10]; Transform RFU*2, Sample 2): 94 RFU
Relative Fluorescene Units (RFU) ([11]; Sample 1): 50 RFU
Relative Fluorescene Units (RFU) ([11]; Sample 2): 66 RFU
Relative Fluorescene Units (RFU) ([11]; Transform RFU*2, Sample 1): 100 RFU
Relative Fluorescene Units (RFU) ([11]; Transform RFU*2, Sample 2): 132 RFU
Relative Fluorescene Units (RFU) ([12]; Sample 1): 1598 RFU
Relative Fluorescene Units (RFU) ([12]; Sample 2): 1156 RFU
[AMC] ([12]; Sample 1): 1560.55 nM
[AMC] ([12]; Sample 2): 1128.91 nM
Relative Fluorescene Units (RFU) ([12]; Transform RFU*2, Sample 1): 3196 RFU
Relative Fluorescene Units (RFU) ([12]; Transform RFU*2, Sample 2): 2312 RFU
[AMC] ([13]; Sample 1): 77.15 nM
[AMC] ([13]; Sample 2): 27.34 nM
Relative Fluorescene Units (RFU) ([13]; Transform RFU*2, Sample 1): 158 RFU
Relative Fluorescene Units (RFU) ([13]; Transform RFU*2, Sample 2): 56 RFU
Relative Fluorescene Units (RFU) ([13]; Sample 1): 79 RFU
Relative Fluorescene Units (RFU) ([13]; Sample 2): 28 RFU
Relative Fluorescene Units (RFU) ([14]; Sample 1): 94 RFU
Relative Fluorescene Units (RFU) ([14]; Sample 2): 100 RFU
Relative Fluorescene Units (RFU) ([14]; Transform RFU*2, Sample 1): 188 RFU
Relative Fluorescene Units (RFU) ([14]; Transform RFU*2, Sample 2): 200 RFU
[AMC] [15]: 143.55 nM and 182.62 nM
Relative Fluorescene Units (RFU) [16]: 14990 RFU and 17431 RFU
[AMC] ([16]; Controls, Sample 1): 14.63867 µM
[AMC] ([16]; Controls, Sample 2): 17.02246 µM
Relative Fluorescene Units (RFU) [16, 17]: 29980 RFU
Relative Fluorescene Units (RFU) [16, 18]: 34862 RFU

QPKKoct (QPKK-{AMC}; not fully specified (residue 4); printed as QPKKoct; also: octanoyl-lysine (which Lys not given here); UniProt P04637 317-320, looked up, fragment)
Relative Fluorescene Units (RFU) ([8]; Transform RFU*2, Sample 1): 248 RFU
Relative Fluorescene Units (RFU) ([8]; Transform RFU*2, Sample 2): 194 RFU
Relative Fluorescene Units (RFU) ([8]; Sample 1): 124 RFU
Relative Fluorescene Units (RFU) ([8]; Sample 2): 97 RFU
Relative Fluorescene Units (RFU) ([9]; Sample 1): 4 RFU
Relative Fluorescene Units (RFU) ([9]; Sample 2): 72 RFU
[AMC] ([9]; Sample 1): 3.91 nM
[AMC] ([9]; Sample 2): 70.31 nM
Relative Fluorescene Units (RFU) ([9]; Transform RFU*2, Sample 1): 8 RFU
Relative Fluorescene Units (RFU) ([9]; Transform RFU*2, Sample 2): 144 RFU
Relative Fluorescene Units (RFU) ([10]; Sample 1): 53 RFU
Relative Fluorescene Units (RFU) ([10]; Sample 2): 75 RFU
Relative Fluorescene Units (RFU) ([10]; Transform RFU*2, Sample 1): 106 RFU
Relative Fluorescene Units (RFU) ([10]; Transform RFU*2, Sample 2): 150 RFU
Relative Fluorescene Units (RFU) ([11]; Sample 1): -13 RFU
Relative Fluorescene Units (RFU) ([11]; Sample 2): -43 RFU
Relative Fluorescene Units (RFU) ([11]; Transform RFU*2, Sample 1): -26 RFU
Relative Fluorescene Units (RFU) ([11]; Transform RFU*2, Sample 2): -86 RFU
Relative Fluorescene Units (RFU) ([12]; Sample 1): 2401 RFU
Relative Fluorescene Units (RFU) ([12]; Sample 2): 1622 RFU
[AMC] ([12]; Sample 1): 2344.73 nM
[AMC] ([12]; Sample 2): 1583.98 nM
Relative Fluorescene Units (RFU) ([12]; Transform RFU*2, Sample 1): 4802 RFU
Relative Fluorescene Units (RFU) ([12]; Transform RFU*2, Sample 2): 3244 RFU
[AMC] ([13]; Sample 1): 67.38 nM
[AMC] ([13]; Sample 2): 71.29 nM
Relative Fluorescene Units (RFU) ([13]; Transform RFU*2, Sample 1): 138 RFU
Relative Fluorescene Units (RFU) ([13]; Transform RFU*2, Sample 2): 146 RFU
Relative Fluorescene Units (RFU) ([13]; Sample 1): 69 RFU
Relative Fluorescene Units (RFU) ([13]; Sample 2): 73 RFU
Relative Fluorescene Units (RFU) ([14]; Sample 1): 88 RFU
Relative Fluorescene Units (RFU) ([14]; Sample 2): 73 RFU
Relative Fluorescene Units (RFU) ([14]; Transform RFU*2, Sample 1): 176 RFU
Relative Fluorescene Units (RFU) [16]: 6579 RFU and 10102 RFU
[AMC] ([16]; Controls, Sample 1): 6.4248 µM
[AMC] ([16]; Controls, Sample 2): 9.86523 µM
Relative Fluorescene Units (RFU) [16, 17]: 13158 RFU
Relative Fluorescene Units (RFU) [16, 18]: 20204 RFU
